Test results published in ChEMBL document CHEMBL2016455, “5-Benzothiazole substituted pyrimidine derivatives as HCV replication (replicase) inhibitors” (Bioorg Med Chem Lett, 2012).
pEC50: −log10 of the molar value.

Legend:
Hepatitis C virus = test: Antiviral activity against Hepatitis C virus isolate con1 1b infected in human hepatoma cells replicon cells after 3 days by RT-PCR analysis; type: functional, organism-based, Hepacivirus hominis, genotype 1b Con1; conditions: Hepatitis C virus, genotype 1b Con1, 72 h
[1] = Cytotoxicity against human hepatoma cells after 3 days by MTS assay; type: cell-based; conditions: human hepatoma cells
[2] = Cytotoxicity against human hepatoma cells assessed as decrease in RNA level after 3 days by RT-PCR analysis; type: cell-based; conditions: human hepatoma cells
[3] = AUC (0 to 6 hrs) in rat at 10 mg/kg, po; type: ADME, organism-based; design: time < 6 hr, dose 10 mg/kg, route oral; conditions: plasma
Liver = test: Drug uptake in rat liver per mg tissue at 10 mg/kg, po after 6 hrs; type: ADME, organism-based; design: dose 10 mg/kg, route oral; conditions: in vivo

Structure (SMILES): Nc1nc(Cl)c(-c2ccccc2)c(N[C@@H]2C[C@H](CO)[C@@H](O)[C@H]2O)n1
- pEC50 (Hepatitis C virus): < 4.60
- CC50 at 72 h [1]: > 25 µM

Structure (SMILES): Nc1nc(Cl)c(-c2ccccn2)c(N[C@@H]2C[C@H](CO)[C@@H](O)[C@H]2O)n1
- pEC50 (Hepatitis C virus): < 4.60
- CC50 at 72 h [2]: > 25 µM
- CC50 at 72 h [1]: > 25 µM

Structure (SMILES): Nc1nc(Cl)c(-c2cnccn2)c(N[C@@H]2C[C@H](CO)[C@@H](O)[C@H]2O)n1
- pEC50 (Hepatitis C virus): < 4.60
- CC50 at 72 h [1]: > 25 µM

Structure (SMILES): Nc1nc(Cl)c(-c2ccco2)c(N[C@@H]2C[C@H](CO)[C@@H](O)[C@H]2O)n1
- pEC50 (Hepatitis C virus): 5.40
- CC50 at 72 h [2]: > 25 µM
- CC50 at 72 h [1]: > 25 µM

Structure (SMILES): Nc1nc(Cl)c(-c2cccs2)c(N[C@@H]2C[C@H](CO)[C@@H](O)[C@H]2O)n1
- pEC50 (Hepatitis C virus): < 4.60
- CC50 at 72 h [2]: > 25 µM

Structure (SMILES): Nc1nc(Cl)c(-c2ncco2)c(N[C@@H]2C[C@H](CO)[C@@H](O)[C@H]2O)n1
- pEC50 (Hepatitis C virus): < 4.60
- CC50 at 72 h [2]: > 25 µM
- CC50 at 72 h [1]: > 25 µM

Structure (SMILES): Nc1nc(Cl)c(-c2nccs2)c(N[C@@H]2C[C@H](CO)[C@@H](O)[C@H]2O)n1
- pEC50 (Hepatitis C virus): 5.52
- CC50 at 72 h [2]: > 25 µM
- CC50 at 72 h [1]: > 25 µM

Structure (SMILES): Nc1nc(Cl)c(-c2cc3ccccc3[nH]2)c(N[C@@H]2C[C@H](CO)[C@@H](O)[C@H]2O)n1
- pEC50 (Hepatitis C virus): 5.15
- CC50 at 72 h [1]: 25 µM

Structure (SMILES): Nc1nc(Cl)c(-c2cc3ccccc3o2)c(N[C@@H]2C[C@H](CO)[C@@H](O)[C@H]2O)n1
- pEC50 (Hepatitis C virus): 6.52
- CC50 at 72 h [1]: > 25 µM

Structure (SMILES): Nc1nc(Cl)c(-c2cc3ccccc3s2)c(N[C@@H]2C[C@H](CO)[C@@H](O)[C@H]2O)n1
- pEC50 (Hepatitis C virus): < 4.60
- CC50 at 72 h [2]: > 25 µM

Structure (SMILES): Nc1nc(Cl)c(-c2nc3ccccc3o2)c(N[C@@H]2C[C@H](CO)[C@@H](O)[C@H]2O)n1
- pEC50 (Hepatitis C virus): 7.30
- CC50 at 72 h [2]: 12 µM
- CC50 at 72 h [1]: 15 µM

Structure (SMILES): Nc1nc(Cl)c(-c2nc3ccccc3s2)c(N[C@@H]2C[C@H](CO)[C@@H](O)[C@H]2O)n1
- pEC50 (Hepatitis C virus): 7.70
- AUC(0-t) at 6 h [3]: 0.08 µM·h
- CC50 at 72 h [2]: 14 µM
- CC50 at 72 h [1]: 18 µM

Structure (SMILES): Nc1nc(Cl)c(-c2nc3ccc(F)cc3s2)c(N[C@@H]2C[C@H](CO)[C@@H](O)[C@H]2O)n1
- pEC50 (Hepatitis C virus): 6.74
- CC50 at 72 h [2]: > 25 µM
- CC50 at 72 h [1]: > 25 µM

Structure (SMILES): Nc1nc(Cl)c(-c2nc3ccc(Cl)cc3s2)c(N[C@@H]2C[C@H](CO)[C@@H](O)[C@H]2O)n1
- pEC50 (Hepatitis C virus): 6.19
- CC50 at 72 h [2]: 16 µM
- CC50 at 72 h [1]: > 25 µM

Structure (SMILES): COc1ccc2nc(-c3c(Cl)nc(N)nc3N[C@@H]3C[C@H](CO)[C@@H](O)[C@H]3O)sc2c1
- pEC50 (Hepatitis C virus): 7.35
- CC50 at 72 h [2]: > 25 µM
- CC50 at 72 h [1]: > 25 µM

Structure (SMILES): CCOc1ccc2nc(-c3c(Cl)nc(N)nc3N[C@@H]3C[C@H](CO)[C@@H](O)[C@H]3O)sc2c1
- pEC50 (Hepatitis C virus): 7.52
- CC50 at 72 h [2]: > 25 µM
- CC50 at 72 h [1]: 25 µM

Structure (SMILES): CNc1ccc2nc(-c3c(Cl)nc(N)nc3N[C@@H]3C[C@H](CO)[C@@H](O)[C@H]3O)sc2c1
- pEC50 (Hepatitis C virus): 7.30
- CC50 at 72 h [2]: 6 µM
- CC50 at 72 h [1]: 16 µM

Structure (SMILES): CNc1ccc2sc(-c3c(Cl)nc(N)nc3N[C@@H]3C[C@H](CO)[C@@H](O)[C@H]3O)nc2c1
- pEC50 (Hepatitis C virus): 7.70
- CC50 at 72 h [2]: 20 µM
- CC50 at 72 h [1]: 14 µM

Structure (SMILES): CN(C)c1ccc2nc(-c3c(Cl)nc(N)nc3N[C@@H]3C[C@H](CO)[C@@H](O)[C@H]3O)sc2c1
- pEC50 (Hepatitis C virus): 6.00
- CC50 at 72 h [2]: > 25 µM
- CC50 at 72 h [1]: > 25 µM

Structure (SMILES): CN(C)c1ccc2sc(-c3c(Cl)nc(N)nc3N[C@@H]3C[C@H](CO)[C@@H](O)[C@H]3O)nc2c1
- pEC50 (Hepatitis C virus): 7.46
- CC50 at 72 h [2]: 25 µM
- CC50 at 72 h [1]: 21 µM

Structure (SMILES): Cc1nc(N)nc(N[C@@H]2C[C@H](CO)[C@@H](O)[C@H]2O)c1-c1nc2ccccc2s1
- pEC50 (Hepatitis C virus): 6.89
- AUC(0-t) at 6 h [3]: 4.7 µM·h
- CC50 at 72 h [2]: 4 µM
- CC50 at 72 h [1]: 25 µM

Structure (SMILES): CCCNc1nc(C)c(-c2nc3ccccc3s2)c(N[C@@H]2C[C@H](CO)[C@@H](O)[C@H]2O)n1
- pEC50 (Hepatitis C virus): 6.51
- CC50 at 72 h [2]: > 25 µM
- CC50 at 72 h [1]: > 25 µM

Structure (SMILES): Cc1nc(NCC(C)C)nc(N[C@@H]2C[C@H](CO)[C@@H](O)[C@H]2O)c1-c1nc2ccccc2s1
- pEC50 (Hepatitis C virus): 7.22
- AUC(0-t) at 6 h [3]: 2.3 µM·h
- Drug uptake (Liver): 510 ng/g
- CC50 at 72 h [2]: 10 µM
- CC50 at 72 h [1]: 10 µM

Structure (SMILES): Cc1nc(NCC2CC2)nc(N[C@@H]2C[C@H](CO)[C@@H](O)[C@H]2O)c1-c1nc2ccccc2s1
- pEC50 (Hepatitis C virus): 7.30
- AUC(0-t) at 6 h [3]: 3.2 µM·h
- Drug uptake (Liver): 405 ng/g
- CC50 at 72 h [2]: 8 µM
- CC50 at 72 h [1]: 8 µM
